From patent publication US5696164A, “Antifungal treatment of nails” (Johnson & Johnson Consumer Products, Inc., priority 1994, dated 1997)
Converted amounts (≈) assume the structure as drawn. Counter-ions that a name gives are not always drawn.

Key:
dermatophites = settings: "as low as"; cited from earlier work
yeasts = settings: "as low as"; cited from earlier work
[1] = as the formulation pH increases; cited from earlier work
[2] = Nail swelling of human nail clippings in itraconazole formulations; settings: FIG. 3a, 32 °C, 48 h
Description: The experimental procedure was the following: Clean human nail clippings were equilibrated to a constant weight by placing them in a desiccator over saturated CaCl2.6H2 O solution (29% relative humidity at room temperature) for at least 48 hours before use. Approximately 30 mg of human nail clippings were weighed into a glass vial. The exact initial weight was recorded. Four grams of the test formulation (pre-warmed to 32° C.) was added into the vial and maintained at 32° C. under stirring in a Heating/Stirring Module (Reacti-Therm III, Pierce). The changes in nail weights were monitored at predetermined intervals over 48 hours. […]
The nail swelling was expressed by the percentage of the initial nail weight (i.e., 100% of the initial nail weight means no swelling, and 200% means a nail swelling doubling the original weight, etc). An enhancement factor is used to show the increase in nail swelling due to the presence of nail penetration enhancer in comparison to the control, which were calculated according to the formula: enhancement factor=(% weight gain of the test nail sample)/(% weight gain of control nail sample, i.e., no enhancer & urea in the formulation). […] The drug concentration in nail was calculated by dividing the amount of the drug in nail (mg) by the weight of the initial nail clipping (i.e., dry nail weight in gram). […]

[3] = Nail swelling-pH profile (urea/propylene carbonate/propylene glycol/N-acetyl-l-cysteine/water); set-up: species or system human; settings: FIG. 8; pH 3.2-7.0, 32 °C
Description: (§1) The experimental procedure was the following: Clean human nail clippings were equilibrated to a constant weight by placing them in a desiccator over saturated CaCl2.6H2 O solution (29% relative humidity at room temperature) for at least 48 hours before use. Approximately 30 mg of human nail clippings were weighed into a glass vial. The exact initial weight was recorded. Four grams of the test formulation (pre-warmed to 32° C.) was added into the vial and maintained at 32° C. under stirring in a Heating/Stirring Module (Reacti-Therm III, Pierce). The changes in nail weights were monitored at predetermined intervals over 48 hours. At the end of the swelling experiment, the nail sample was rinsed with a mixture of N,N-dimethylformamide and methanol (1:1) to remove surface-bound drug. The nail sample was then digested, and the drug concentration in nail was determined by high pressure liquid chromatography method as described by Badcock and Davies, Assay of itraconazole in nail clippings by reversed phase, high performance liquid chromatography, Ann. Clin. Biochem, 27 (1990) 506-508.
It should be noted that, unlike the itraconazole formulations discussed above, which were tested at pH 3, the pH value of the miconazole nitrate formulation was set at pH 9. […] This was confirmed by the swelling-pH profile shown in FIG. 8, using the following formulation: […]

[4] = after nail avulsion; cited from earlier work
[5] = rats; skin pretreated with aqueous calcium thioglycolate solution; cited from earlier work
[6] = Nail swelling in miconazole nitrate cream formulation; set-up: species or system human; settings: FIG. 7; 1% miconazole nitrate, 20% urea, 10% N-acetyl-l-cysteine cream, pH 9.0
Description: as §1
(§2) A nail swelling and drug partitioning experiment was also conducted for miconazole nitrate using procedures analogous to those described above. […]

[7] = Miconazole nitrate partitioning into nail; format: in vitro ADME, human; settings: FIG. 7; 1% miconazole nitrate, 20% urea, 10% N-acetyl-l-cysteine cream, pH 9.0
Description: as §1, §2

[8] = Effect of urea on nail swelling/hydration in aqueous urea solutions; set-up: species or system human; settings: pH 4.5
Description: as §1
The effect of urea on nail swelling was investigated, using aqueous urea solutions of various concentrations at pH 4.5. […] For this reason, it is believed that the use of urea alone will not cause significant enhancement of drug permeation through the nail.

[9] = prior to topical treatment of onychomycosis; cited from earlier work
[10] = calcium thioglycolate added directly into ointment; cited from earlier work

Molecule: CCC(C)n1ncn(-c2ccc(N3CCN(c4ccc(OCC5COC(Cn6cncn6)(c6ccc(Cl)cc6Cl)O5)cc4)CC3)cc2)c1=O (centres unmarked) [itraconazole]
- minimal inhibitory concentration (MIC) (dermatophites): 0.1 µg/mL (≈ 0.142 µM)
- minimal inhibitory concentration (MIC) (yeasts): 0.1 µg/mL (≈ 0.142 µM)
- solubility versus formulation pH [1]: decreases

Molecule: N[C@@H](CS)C(=O)O [l-cysteine]
- rank of nail swelling enhancement [2]: highest nail swelling enhancement

Molecule: CC(=O)N[C@@H](CS)C(=O)O [N-acetyl-l-cysteine, N-Acetyl-l-cysteine]
- working pH range [3]: wide working pH range

Molecule: CC(=O)N1CCN(c2ccc(OCC3COC(Cn4ccnc4)(c4ccc(Cl)cc4Cl)O3)cc2)CC1 (centres unmarked) [ketoconazole]
- efficacy in topically treating onychomycosis [4]: effective

Molecule: Clc1ccc(COC(Cn2ccnc2)c2ccc(Cl)cc2Cl)c(Cl)c1 (centres unmarked) [miconazole]
- efficacy in topically treating onychomycosis [4]: effective

Molecule: insulin
- transdermal drug permeation [5]: enhanced transdermal drug permeation

Molecule: Clc1ccc(COC(Cn2ccnc2)c2ccc(Cl)cc2Cl)c(Cl)c1 (centres unmarked) [miconazole nitrate]
- nail swelling [6]: significant nail swelling
- miconazole partitioning into the nail [7]: substantial miconazole partitioning into the nail

Molecule: NC(N)=O [urea]
- nail hydration ([8]; 20% aqueous urea): 30%
- nail hydration ([8]; 40% aqueous urea): 50%
- results of nonsurgical avulsion of nail dystrophies [9]: satisfactory results

Molecule: COc1ccc2c(c1)c(CC(=O)O)c(C)n2C(=O)c1ccc(Cl)cc1 [calcium salt of indomethacin, indomethacin]
- drug absorption [10]: dramatically decreased the absorption
